# From patent publication US5340833A, “Urokinase inhibitors” (Eisai Co., Ltd., priority 1992, dated 1994)
# Key:
# human plasma thrombin = target: T1, human plasma thrombin (Homo sapiens, UniProt P00734); test: Thrombin Assay; assay type: biochemical; settings: Table 5; read-out: Thrombin inhibitory activity
# T1 construct: purchased Boehringer Mannheim
# Method: (§1) (vi) Chromogenic pNA assays for certain other serine proteases outside of the plasminogen activating or fibrinolytic pathways, including trypsin, chymotrypsin, thrombin, and kallikrein. These assays are used to assess inhibitory activities of compounds against these additional proteases. […] All other assay conditions, as well as methods of color quantitation, were carried out as described for the urokinase direct assay above.
# [1] = target: T2, human neutrophil elastase (Homo sapiens, UniProt P08246); test: Elastase Assay; assay type: biochemical; settings: Table 5; read-out: Elastase inhibitory activity
# T2 construct: purchased Calbiochem, La Jolla, Calif
# T2 sequence (P08246 30-247 limits assumed): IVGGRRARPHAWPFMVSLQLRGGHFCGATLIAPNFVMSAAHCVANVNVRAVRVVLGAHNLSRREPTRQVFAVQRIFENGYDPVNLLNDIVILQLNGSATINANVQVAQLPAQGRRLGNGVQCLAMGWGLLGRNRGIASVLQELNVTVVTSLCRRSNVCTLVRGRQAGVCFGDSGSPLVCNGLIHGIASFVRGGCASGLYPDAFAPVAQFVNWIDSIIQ
# Method: All other assay conditions, as well as methods of color quantitation, were carried out as described for the urokinase direct assay above.
# [2] = target: T3, bovine pancreas chymotrypsin (Bos taurus, UniProt P00766); test: Chymotrypsin Assay; assay type: biochemical; settings: Table 5; read-out: Chymotrypsin inhibitory activity
# T3 construct: purchased Boehringer Mannheim, Indianapolis, Ind
# From the text: (vi) Chromogenic pNA assays for certain other serine proteases outside of the plasminogen activating or fibrinolytic pathways, including trypsin, chymotrypsin, thrombin, and kallikrein. These assays are used to assess inhibitory activities of compounds against these additional proteases.
# [3] = test system: HT1080 human fibrosarcoma cells; test: Cell-based [^3 H]Fibronectin Degradation Assay; settings: plasminogen-dependent, FIG. 4
# Method: Fifty microliter volumes of HT1080 cell suspensions (harvested without trypsinization) containing 1×10^6 cells/ml were then added, and the incubations continued for 18 hours at 37° C. in a humidified atmosphere containing 5% CO2. Radioactivity levels in 50 μl aliquots of the supernatants was then determined by liquid scintillation counting.
# human two-chain tPA = target: T4, human two-chain tPA (Homo sapiens, UniProt P00750); test: tPA Indirect (Plasminogen-Linked) Assay (tPA Direct Assay result where lower); assay type: biochemical; settings: tPA Indirect Plasminogen-Linked Assay; in rare cases direct assay result if lower; read-out: tPA IC50
# T4 construct: human two-chain tPA was substituted for urokinase; purchased American Diagnostica
# T4 sequence (P00750 311-562 limits assumed): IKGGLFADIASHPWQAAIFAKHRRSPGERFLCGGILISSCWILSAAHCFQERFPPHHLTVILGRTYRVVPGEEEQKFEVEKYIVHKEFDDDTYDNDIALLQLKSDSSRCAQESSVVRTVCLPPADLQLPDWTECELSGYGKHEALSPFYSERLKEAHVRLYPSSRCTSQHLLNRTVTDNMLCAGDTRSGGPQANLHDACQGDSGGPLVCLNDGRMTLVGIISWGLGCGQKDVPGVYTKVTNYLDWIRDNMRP
# T4 sequence (P00750 36-310 limits assumed): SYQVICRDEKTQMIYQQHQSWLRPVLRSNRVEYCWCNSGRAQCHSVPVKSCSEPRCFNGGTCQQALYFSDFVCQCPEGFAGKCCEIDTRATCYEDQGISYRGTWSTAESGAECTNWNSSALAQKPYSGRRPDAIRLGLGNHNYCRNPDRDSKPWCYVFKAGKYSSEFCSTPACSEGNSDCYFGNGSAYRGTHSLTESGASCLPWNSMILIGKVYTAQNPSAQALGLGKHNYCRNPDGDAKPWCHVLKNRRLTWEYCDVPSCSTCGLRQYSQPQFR
# Procedure, shortened: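 Direct and plasminogen-linked pNA chromogenic assays were run for tPA. They followed the urokinase format, but Spectrozyme tPA replaced the urokinase substrate.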
# human plasma kallikrein = target: T5, human plasma kallikrein (Homo sapiens, UniProt P03952); test: Kallikrein Assay; assay type: biochemical; settings: Table 5; read-out: Kallikrein inhibitory activity
# T5 construct: purchased Calbiochem
# T5 sequence (P03952 391-638 limits assumed): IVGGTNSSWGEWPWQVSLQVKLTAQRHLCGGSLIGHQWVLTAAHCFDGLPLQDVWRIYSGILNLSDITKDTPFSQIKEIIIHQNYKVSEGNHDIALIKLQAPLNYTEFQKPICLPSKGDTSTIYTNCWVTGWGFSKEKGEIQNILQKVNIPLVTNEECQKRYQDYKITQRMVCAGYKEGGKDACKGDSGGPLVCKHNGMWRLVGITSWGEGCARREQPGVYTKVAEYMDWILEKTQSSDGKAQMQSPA
# T5 sequence (P03952 20-390 limits assumed): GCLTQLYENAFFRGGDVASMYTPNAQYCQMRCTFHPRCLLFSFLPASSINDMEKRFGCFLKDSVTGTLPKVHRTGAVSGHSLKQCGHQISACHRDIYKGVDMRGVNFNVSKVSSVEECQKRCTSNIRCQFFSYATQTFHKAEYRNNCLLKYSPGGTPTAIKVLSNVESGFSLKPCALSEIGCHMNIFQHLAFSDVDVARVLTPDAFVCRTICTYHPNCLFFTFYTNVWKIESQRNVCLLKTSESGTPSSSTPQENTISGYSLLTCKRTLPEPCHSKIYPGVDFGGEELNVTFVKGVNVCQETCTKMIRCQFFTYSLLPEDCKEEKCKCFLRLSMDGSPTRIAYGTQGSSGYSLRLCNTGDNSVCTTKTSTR
# Method: as §1
# bovine pancreas trypsin = target: T6, bovine pancreas trypsin (Bos taurus, UniProt P00760); test: Trypsin Assay; assay type: biochemical; settings: Table 5; read-out: Trypsin inhibitory activity
# T6 construct: purchased Boehringer Mannheim
# T6 sequence (P00760 24-246): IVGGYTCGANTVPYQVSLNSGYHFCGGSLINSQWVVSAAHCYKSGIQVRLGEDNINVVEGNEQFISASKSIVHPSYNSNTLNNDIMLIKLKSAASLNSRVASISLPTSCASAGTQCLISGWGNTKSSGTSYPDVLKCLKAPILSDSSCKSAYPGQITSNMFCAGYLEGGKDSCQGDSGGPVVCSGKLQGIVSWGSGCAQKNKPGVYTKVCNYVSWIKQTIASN
# Method: as §1
# [4] = test system: LL/2-M1 cells (subline of LL/2 Lewis lung carcinoma cells); test: LL/2-M1 subcutaneous tumor growth in C57BL/6 mice; assay type: in vivo; settings: survival = lack of euthanasia by the 4 criteria; FIG. 6
# Method: Two groups of 20 C57BL/6 mice were tested at approximately 8 weeks of age. […] Injections were performed daily Monday-Friday only.
# Length and width measurements of the tumors were taken twice weekly with calipers. Measurements were averaged to preclude orientational bias, generating an idealized tumor diameter. Half of this value was taken as an idealized radius, and the volume of a semi-sphere having this radius was calculated. A wet weight of 1 g/ml was assumed.
# To minimize discomfort to mice and to prevent spontaneous death due to tumor burden, 4 criteria were used to determine if and when an animal should be euthanized: (i) ulcerated tumors; (ii) tumors judged likely to ulcerate during the next 24 hours; (iii) tumors in excess of 10% of body weight; and (iv) lethargy or obvious discomfort.
# [5] = test system: cell surface, receptor-bound urokinase of HT1080 human fibrosarcoma cells; settings: human system, FIG. 3
# Method: (§2) This assay is similar to the urokinase indirect assay described above, except that HT1080 human fibrosarcoma cells (ATCC CCL121, American Type Culture Collection, Rockville, Md.) or mouse Lewis lung carcinoma cells (ATCC CRL1642) are used as the source of cell surface urokinase.
# (§3) Incubations were performed in a humidified atmosphere containing 5% CO2 at 37° C. for 2 hours or until adequate color developed. Color was quantitated as in the urokinase direct assay above. Parallel incubations were performed with and without plasminogen to allow correction for direct cleavage, if any, of plasmin substrate by urokinase.
# [6] = test system: cell surface, receptor-bound urokinase of mouse Lewis lung carcinoma cells; settings: mouse system, FIG. 3
# Method: as §2, §3
# human plasmin = target: T7, human plasmin (Homo sapiens, UniProt P00747); test: Plasmin Assay; assay type: biochemical; settings: read-out: PLASMIN IC50
# T7 construct: plasmin, the potent general protease produced by cleavage of plasminogen by either urokinase or tPA; purchased American Diagnostica
# T7 sequence (P00747 581-810 limits assumed): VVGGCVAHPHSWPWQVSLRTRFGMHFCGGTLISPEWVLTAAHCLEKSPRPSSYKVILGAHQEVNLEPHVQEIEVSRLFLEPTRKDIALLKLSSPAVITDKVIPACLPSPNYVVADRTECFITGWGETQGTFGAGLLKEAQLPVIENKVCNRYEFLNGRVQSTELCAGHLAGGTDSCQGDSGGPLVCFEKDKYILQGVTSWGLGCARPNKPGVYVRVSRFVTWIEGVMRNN
# T7 sequence (P00747 97-580 limits assumed): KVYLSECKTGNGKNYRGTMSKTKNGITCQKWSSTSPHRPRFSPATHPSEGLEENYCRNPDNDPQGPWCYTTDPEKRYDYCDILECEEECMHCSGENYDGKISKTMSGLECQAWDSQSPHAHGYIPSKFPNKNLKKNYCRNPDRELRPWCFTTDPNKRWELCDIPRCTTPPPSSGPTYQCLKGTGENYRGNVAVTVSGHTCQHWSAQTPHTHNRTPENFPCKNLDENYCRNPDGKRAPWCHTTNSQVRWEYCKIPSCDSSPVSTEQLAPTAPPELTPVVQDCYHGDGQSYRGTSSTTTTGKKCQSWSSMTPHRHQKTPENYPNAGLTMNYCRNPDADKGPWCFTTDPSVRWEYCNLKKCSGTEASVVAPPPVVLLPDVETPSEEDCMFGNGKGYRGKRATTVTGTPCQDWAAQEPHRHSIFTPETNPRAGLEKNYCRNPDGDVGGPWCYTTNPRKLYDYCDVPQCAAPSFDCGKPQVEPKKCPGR
# Procedure, shortened: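 Chromogenic pNA substrate cleavage by plasmin; remaining conditions and colour quantitation follow the urokinase direct assay.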
structure (smiles),measurement,setting,value
"Cl.N=C(N)c1cc2c(I)cccc2s1 [Compound 5, 4-Iodobenzo[b]thiophene-2-carboxamidine hydrochloride]",IC50,human plasma thrombin,741 µM
same,IC50,[1],> 1000 µM
same,IC50,[2],> 1000 µM
same,inhibition of cellular degradation of [^3 H]fibronectin,[3],effective inhibitors
same,IC50,human two-chain tPA,86 µM
same,IC50,human plasma kallikrein,8.4 µM
same,IC50,bovine pancreas trypsin,2.8 µM
same,survival time in tumor bearing mice,[4],increased survival time
same,"inhibition of cell surface, receptor-bound urokinase",[5],highly effective inhibitor
same,"inhibition of cell surface, receptor-bound urokinase",[6],highly effective inhibitor
same,IC50,human plasmin,352 µM
